Experimental data taken from US7863247B1, “Prevention of fetal alcohol syndrome and neuronal cell death with ADNF polypeptides” (Ramot-University Authority for Applied Research and …, priority 2000, dated 2011).
No end group written: not given here.

What was measured:
[1] = tested on: C57-B16J mice exposed to alcohol in utero; assay: Fetal weights at E18 in the FAS model; format: in vivo
Description: (§1) A published well-delineated model for FAS was followed (Webster et al., Neurobehav Tox, 2:227-34 (1980)). Animals were injected (intraperitoneal) on E8 with 25% ethyl alcohol in saline (v/v) or vehicle alone at 0.030 ml/g body weight at 0900 on E8. Pretreatment with VIP and ADNF polypeptides (e.g., NAP, SAL, NAP+SAL) were given 30 min prior to alcohol. Post-treatment with NAP+SAL was given at 1 or 3 h after alcohol. Dosages of the neuropeptides were NAP (20 μg and 40 μg), SAL (20 μg), NAP (20 μg)+SAL (20 μg); VIP (1 μg). NAP+SAL without alcohol was also studied. NAP was diluted in 50 μl DMSO and diluted in filtered Dulbecco's phosphate buffered saline (DPBS). SAL was dissolved and diluted in filtered DPBS. VIP was dissolved in 20 μl glacial acetic acid and diluted in HPLC water and DPBS. Since the animals receiving alcohol were incapacitated for approximately 6 hours following injection, food and water were withheld from all groups for the initial 6 hours, to allow accurate assessment of fetal weights.
At E18 (embryonic gestation day 18), the number of live and demised fetuses was determined. Fetal weights and fetal brain weights were obtained for each fetus in the litter. The mean fetal weights were determined for each mother, and this was used for statistical analysis.
The mean litter pup and fetal brain weight was calculated, with the litter mean used for all statistical analysis. Percent demises were calculated by dividing the number of demises by the total number of fetuses (live plus demises). Statistical analysis included ANOVA for continuous variables, Mann-Whitney U for nonparametic data, Chi square for categorical variables or Fisher's exact test where appropriate [Statview 4.5 (Abacus Concepts, Inc., Berkeley, Calif.)] with p<0.05 considered significant. Results are presented as mean±standard error unless specified.

[2] = tested on: C57-B16J mice exposed to alcohol in utero; assay: Fetal death (% demises at E18) in the FAS model; format: in vivo; conditions: pretreatment 30 min prior to alcohol on E8 (NAP 20 μg; NAP 20 μg+SAL 20 μg; VIP 1 μg); counted at E18
Description: as §1, with “Since the animals receiving alcohol were incapacitated for approximately 6 hours following injection, food and water were withheld from all groups for the initial 6 hours, to allow accurate assessment of fetal weights.” left out
(§2) At E18 (embryonic gestation day 18), the number of live and demised fetuses was determined. […] The mean fetal weights were determined for each mother, and this was used for statistical analysis.
(§3) The mean litter pup and fetal brain weight was calculated, with the litter mean used for all statistical analysis. Percent demises were calculated by dividing the number of demises by the total number of fetuses (live plus demises). […]

[3] = Bioavailability of 3H-NAP to embryos (size exclusion chromatography); format: in vivo, mice
Description: FIG. 7a and FIG. 7b illustrate chromatographs of radiolabel (^3H) present in 1 ml fractions from a size exclusion column (Superdex Peptide HR 10/30, Pharmacia Biotech). ^3H-NAP (2 μCi/20 μg) was administered intraperitoneally to pregnant mice at E8. Intact NAP was present in fractions 15-17 denoted by shaded grey bar on graphs. FIG. 7a illustrates a pooled sample of three embryos (different litters) after a thirty minute exposure to ^3H-NAP. Based on this accumulation of labeled peptide, approximately 1 pmoles of NAP was found in the embryo, with an estimated concentration of 10 nM, well within the therapeutic range of NAP. FIG. 7b illustrates a pooled sample of three embryos (different litters) after a sixty minute exposure to ^3H-NAP.
The bioavailability of NAP to embryos was assessed by intraperitoneal administration of ^3H-NAP (2 μCi/20 μg) to pregnant mice at E8. […] Based on this accumulation of labeled peptide, approximately […] of NAP was found in the embryo, with an estimated concentration of 10 nM, well within the therapeutic range of NAP.

[4] = tested on: C57-B16J mice exposed to alcohol in utero; assay: Fetal brain weights at E18 in the FAS model; format: in vivo; conditions: pretreatment 30 min prior to alcohol on E8 (SAL 20 μg; NAP 20 μg+SAL 20 μg)
Description: as §1, with “Since the animals receiving alcohol were incapacitated for approximately 6 hours following injection, food and water were withheld from all groups for the initial 6 hours, to allow accurate assessment of fetal weights.” left out
as §2, §3

[5] = pretreatment 30 min prior to alcohol on E8 (NAP 20 μg; SAL 20 μg; NAP 20 μg+SAL 20 μg; VIP 1 μg)

Asn-Ala-Pro-Val-Ser-Ile-Pro-Gln [NAP]
fetal weights (alcohol-induced growth restriction) [1, 5]: moderately prevented the alcohol-induced growth restrictions
fetal weights (alcohol-induced growth restriction) ([1]; pretreatment with a double dosage of NAP (40 μg)): moderately prevented the alcohol-induced growth restriction
percentage of fetal demises [2]: prevented the death seen with alcohol
estimated concentration of NAP in the embryo ([3]; 3H-NAP 2 μCi/20 μg intraperitoneal at E8, 30 min): ~10 nM
radioactivity recovered in the embryo co-migrating with intact NAP ([3]; 3H-NAP 2 μCi/20 μg intraperitoneal to pregnant mice at E8, 30 min after administration): 60%

vasoactive intestinal peptide (HSDAVFTDNYTRLRKQMAVKKYLNSILN; ends and bridges not checked; UniProt P01282 125-152, looked up) [VIP, neuropeptide that is a regulator of early postimplantation mouse embryonic growth, reference compound]
fetal weights (alcohol-induced growth restriction) [1, 5]: improved embryonic weights; however, the effect was intermediate and not statistically significant
percentage of fetal demises [2]: did not reverse the fetal death rate

SALLRSIPA
fetal weights (alcohol-induced growth restriction) [1, 5]: did not prevent the alcohol-induced fetal weight reduction
fetal brain weights (alcohol-induced microcephaly) [4]: moderately prevented the alcohol-induced fetal brain weight reduction
